Laboratory results: patent US8916605B2, “Compounds and methods for treating cancer and viral infections” (priority 2009, dated 2014)

What was measured:
[1] = test system: Influenza A (strain A/PR/8/34); assay: Anti-influenza cytopathic effect (CPE) assay in MDCK cells, prophylactic regimen (Example 7); assay type: cell-based; parameters: key to CPE score: 1: Complete monolayer with few gaps or dead cells; 2: Some gaps in the monolayer; dead cells more evident; 3: Increasing number of gaps in the monolayer concurrent with dead cells; 4: Gaps widely distributed throughout the monolayer and of increasing size; 5: Large holes forming as smaller gaps merge; copious dead cells evident; 6: Monolayer integrity lost. Small islands of attached cells amid predominantly dead cells; conditions: for CPE score: Influenza A, MDCK
[2] = test system: Influenza B (strain B/Lee/40); assay: as above; assay type: cell-based; parameters: key to CPE score: 1: Complete monolayer with few gaps or dead cells; 2: Some gaps in the monolayer; dead cells more evident; 3: Increasing number of gaps in the monolayer concurrent with dead cells; 4: Gaps widely distributed throughout the monolayer and of increasing size; 5: Large holes forming as smaller gaps merge; copious dead cells evident; 6: Monolayer integrity lost. Small islands of attached cells amid predominantly dead cells; conditions: for CPE score: Influenza B, MDCK, virus + DMSO control 4
[3] = test system: all three transformed neuronal cell lines (IMR32, NG108, NSC34); assay: MTT (CIMA) cell proliferation assay (Example 4); conditions: 72 h post-treatment; 0.5-250 μg/ml
Protocol: (§1) Compound preparation: Stock solutions of test compounds were prepared in dimethylsulfoxide (DMSO) at 250 mg/ml. Working concentrations of 10 mg/ml were subsequently prepared from the stock solution and stored in 50 μl aliquots at −20° C. until used.
Cells and cell culture: Three classes of cells were evaluated: 1) neuroblastoma cells, 2) neuroglioma cells, and 3) non-transformed human neurons (see below). All cells were maintained in appropriate culture medium supplemented with 10% fetal calf serum (FCS) and antibiotics in a humidified, 5% CO2 environment. Cells were passaged as required by trypsinization.
Assay conditions: The effects of the test compounds were assessed following acute and chronic exposure conditions. […] Each compound was evaluated over a broad range of concentrations (0, 0.5, 1, 5, 10, 50, 100 and 250 μg/ml) with cells treated with equivalent concentrations of vehicle (DMSO) serving as controls.
Cell proliferation assay: Cell proliferation was assessed using a standard colorimetric indicator of metabolic activity (CIMA) assay. In this assay, the reduction of yellow tetrazolium salt (MTT) to purple formazan by mitochondrial reductase enzymes in viable cells was evaluated as a measure of metabolic activity to determine the extent of cell proliferation within a culture. […]

MDCK cells = assay: Cytotoxicity assay (MTT/CIMA) in MDCK cells (Example 7)
U373 astroglioma cells = assay: MTT (CIMA) cell proliferation assay, acute and chronic exposure (Example 3); conditions: acute (24 h) and chronic (72 h) treatment, 0.5-250 μg/ml
Protocol: as §1
(§2) Cells and cell culture: Proof-of-principle studies in this example focused on two human brain cancer cell lines, namely SH-SY5Y neuroblastoma cells and U373 astroglioma cells. […] Both cells were maintained in (50:50) F12:DMEM medium supplemented with 10% fetal calf serum (FCS) and antibiotics in a humidified, 5% CO2 environment. Cells were passaged as required by trypsinization.
(§3) Assays conditions: The effects of the test compounds were assessed following acute and chronic exposure conditions. […] The test compounds were evaluated over a broad range of concentrations (0, 0.5, 1, 5, 10, 50, 100 and 250 μg/ml) with cells treated with equivalent concentrations of vehicle (DMSO) serving as controls.
(§4) Cell proliferation assay: Cell proliferation was assessed using a standard colorimetric indicator of metabolic activity (CIMA) assay. In this assay, the reduction of yellow tetrazolium salt (MTT) to purple formazan by mitochondrial reductase enzymes in viable cells was evaluated as a measure of metabolic activity to determine the extent of cell proliferation within a culture. The resulting colour change that conferred a change in absorbance was quantified using a spectrophotometer (λ=500-600). Samples were diluted as required to ensure that values obtained with the MTT assay fell within the linear range of the protocol. Qualitative microscopic evaluation of treated cultures was used to determine if overt cytotoxicity was present and to supplement the quantitative CIMA data.

[4] = test system: SH-SY5Y neuroblastoma cells; assay: as above
Protocol: as §1, §2, §3, §4

## CC(C)(C)OC(=O)N1CCCC1O (centres unmarked) [I(b), tert-butyl 2-hydroxypyrrolidine-1-carboxylate]
[1]; 0.5 μg/ml, virus + DMSO control 3
  CPE score: 1
[1]; 0.5 μg/ml, virus + DMSO control 4
  CPE score: 2
[1]; 1.0 μg/ml, virus + DMSO control 3
  CPE score: 1
[1]; 1.0 μg/ml, virus + DMSO control 4
  CPE score: 2
[1]; 5.0 μg/ml, virus + DMSO control 3
  CPE score: 1
[1]; 5.0 μg/ml, virus + DMSO control 4
  CPE score: 3
[1]; 10 μg/ml, virus + DMSO control 3
  CPE score: 3
[1]; 10 μg/ml, virus + DMSO control 4
  CPE score: 4
[1]; 25 μg/ml, virus + DMSO control 3
  CPE score: 3
[1]; 25 μg/ml, virus + DMSO control 4
  CPE score: 4
[1]; 50 μg/ml, virus + DMSO control 3
  CPE score: 3
[1]; 50 μg/ml, virus + DMSO control 4
  CPE score: 4
[1]; 100 μg/ml, virus + DMSO control 3
  CPE score: 3
[1]; 100 μg/ml, virus + DMSO control 4
  CPE score: 4
[1]; comparatively lower concentrations
  effect on CPE (summary in words): lower concentrations more greatly reduced CPE
[2]; Influenza B infection
  effect on CPE (summary in words): little impact on CPE
[2]; 24 hpi, 0.5 μg/ml
  CPE score: 3
[2]; 24 hpi, 1.0 μg/ml
  CPE score: 4
[2]; 24 hpi, 5.0 μg/ml
  CPE score: 4
[2]; 24 hpi, 10 μg/ml
  CPE score: 3
[2]; 24 hpi, 25 μg/ml
  CPE score: 4
[2]; 24 hpi, 50 μg/ml
  CPE score: 3
[2]; 24 hpi, 100 μg/ml
  CPE score: 4
[2]; 48 hpi, 0.5 μg/ml
  CPE score: 3
[2]; 48 hpi, 1.0 μg/ml
  CPE score: 4
[2]; 48 hpi, 5.0 μg/ml
  CPE score: 4
[2]; 48 hpi, 10 μg/ml
  CPE score: 4
[2]; 48 hpi, 25 μg/ml
  CPE score: 4
[2]; 48 hpi, 50 μg/ml
  CPE score: 3
[2]; 48 hpi, 100 μg/ml
  CPE score: 3
[3]
  viability/proliferation: dose-dependent decreases in viability/proliferation
MDCK cells; 24 h exposure, 0.5 μg/ml
  Toxicity (MTT), fold changes relative to vehicle controls: 1.02 fold
MDCK cells; 24 h exposure, 1.0 μg/ml
  Toxicity (MTT), fold changes relative to vehicle controls: 1.07 fold
MDCK cells; 24 h exposure, 5.0 μg/ml
  Toxicity (MTT), fold changes relative to vehicle controls: 1.09 fold
MDCK cells; 24 h exposure, 10 μg/ml
  Toxicity (MTT), fold changes relative to vehicle controls: 1.00 fold
MDCK cells; 24 h exposure, 25 μg/ml
  Toxicity (MTT), fold changes relative to vehicle controls: 1.08 fold
MDCK cells; 24 h exposure, 50 μg/ml
  Toxicity (MTT), fold changes relative to vehicle controls: 1.13 fold
MDCK cells; 24 h exposure, 100 μg/ml
  Toxicity (MTT), fold changes relative to vehicle controls: 1.09 fold
MDCK cells; 72 h exposure, 0.5 μg/ml
  Toxicity (MTT), fold changes relative to vehicle controls: 0.99 fold
MDCK cells; 72 h exposure, 1.0 μg/ml
  Toxicity (MTT), fold changes relative to vehicle controls: 1.00 fold
MDCK cells; 72 h exposure, 5.0 μg/ml
  Toxicity (MTT), fold changes relative to vehicle controls: 0.94 fold
MDCK cells; 72 h exposure, 10 μg/ml
  Toxicity (MTT), fold changes relative to vehicle controls: 0.97 fold
MDCK cells; 72 h exposure, 25 μg/ml
  Toxicity (MTT), fold changes relative to vehicle controls: 1.04 fold
MDCK cells; 72 h exposure, 50 μg/ml, decreases exceeding 25% considered toxic
  Toxicity (MTT), fold changes relative to vehicle controls: 0.99 fold
MDCK cells; 72 h exposure, 100 μg/ml, decreases exceeding 25% considered toxic
  Toxicity (MTT), fold changes relative to vehicle controls: 0.89 fold
MDCK cells; higher concentrations (≧25 μg/ml)
  cytotoxicity (summary in words): did not evidence cytotoxicity
U373 astroglioma cells
  overt cell death / reductions in MTT activity: Neither overt cell death nor significant reductions in MTT activity
[4]; SH-SY5Y, acute treatment (24 h), 0.25 mg/ml
  decrease in MTT activity: approximately 30%
[4]; SH-SY5Y, acute treatment (24 h), other concentrations evaluated (below 0.25 mg/ml)
  change in MTT activity: No significant change in MTT activity
[4]; SH-SY5Y, chronic treatment (72 h), 50 μg/ml
  decrease in MTT activity: 25%
[4]; SH-SY5Y, chronic treatment (72 h), 100 μg/ml
  decrease in MTT activity: 25%
[4]; SH-SY5Y, chronic treatment (72 h), 250 μg/ml
  decrease in MTT activity: 47%
[4]; select cell types, chronic conditions (72 h)
  LD50: ~0.25 mg/mL
